According to ChEMBL document CHEMBL3098120, “Synthesis and analysis of activity of a potential anti-melanoma prodrug with a hydrazine linker” (Eur J Med Chem, 2014):
Calls of active or inactive are those of the source. No cut-off for these calls is given here.

Legend:
B16-F10 [1] = assay: Antitumor activity against mouse B16F10 cells […] in C57BL/6 mouse assessed as reduction of tumor size at 100 ug administered as intratumorally for 3 days; type: functional, cell-based
B16-F10 [2] = assay: Cytotoxicity against mouse B16F10 cells at 250 uM after 24 to 48 hrs by MTT assay; type: functional, cell-based
[3] = Cytotoxicity against mouse HECa10 cells at 250 uM after 24 to 48 hrs by MTT assay; type: cell-based
[4] = Prodrug activation mediated by mushroom tyrosinase assessed as 5,6-dihydroxy-1H-indazol-1-yl 4-[bis-(2-chloroethyl)amino]benzoate formation up to 120 mins by UV-Vis spectroscopy; settings: agaricus bisporus, 2 h
NIH3T3 = assay: Cytotoxicity against mouse NIH/3T3 cells at 250 uM after 24 to 48 hrs by MTT assay; type: cell-based; settings: nih3t3, 250 µM
[5] = Prodrug activation mediated by mushroom tyrosinase assessed as N-{4-[bis-(2-chloroethyl)amino]benzoyl}-N''-(4-hydroxybenzylidene)hydrazine formation up to 120 mins by TLC, HPLC or MS analysis; settings: agaricus bisporus, 2 h
[6] = Prodrug activation mediated by mushroom tyrosinase assessed as 4-[bis-(2-chloroethyl) amino]benzoic cid formation up to 120 mins by TLC, HPLC or MS analysis; settings: agaricus bisporus, 2 h

Compound	Activity (B16-F10 [1])	Activity (B16-F10 [2])	Activity [3]	Drug metabolism [4]	Activity (NIH3T3)	Drug metabolism [5]	Drug metabolism [6]
N[C@@H](Cc1ccc(N(CCCl)CCCl)cc1)C(=O)O	Active	–	–	–	–	–	–
O=C(NNCc1ccc(O)cc1)c1ccc(N(CCCl)CCCl)cc1	Active	Active	Toxic	Active	Toxic	Active	Not Active
